Measurements taken from article PMC9103625, “The Role of the Nucleotides in the Insertion of the bis-Molybdopterin Guanine Dinucleotide Cofactor into apo-Molybdoenzymes” (Molecules, 2022).

Tests used:
apo-TorA = target: T1, apo-TorA (Escherichia coli, UniProt P33225); assay: in vitro reconstitution, gel filtration, HPLC of FormA-GMP; assay type: binding; settings: 1.3 µM apo-TorA, bis-MGD extracted from wtTorA, saturation at 25 µM donor, 7 h, 37 °C, pH 7.2, anaerobic
T1 construct: from plasmid pJF119EH, Ni-NTA and size exclusion purified; cofactor-free apo-enzyme reconstituted in vitro
T1 sequence (P33225 40-848): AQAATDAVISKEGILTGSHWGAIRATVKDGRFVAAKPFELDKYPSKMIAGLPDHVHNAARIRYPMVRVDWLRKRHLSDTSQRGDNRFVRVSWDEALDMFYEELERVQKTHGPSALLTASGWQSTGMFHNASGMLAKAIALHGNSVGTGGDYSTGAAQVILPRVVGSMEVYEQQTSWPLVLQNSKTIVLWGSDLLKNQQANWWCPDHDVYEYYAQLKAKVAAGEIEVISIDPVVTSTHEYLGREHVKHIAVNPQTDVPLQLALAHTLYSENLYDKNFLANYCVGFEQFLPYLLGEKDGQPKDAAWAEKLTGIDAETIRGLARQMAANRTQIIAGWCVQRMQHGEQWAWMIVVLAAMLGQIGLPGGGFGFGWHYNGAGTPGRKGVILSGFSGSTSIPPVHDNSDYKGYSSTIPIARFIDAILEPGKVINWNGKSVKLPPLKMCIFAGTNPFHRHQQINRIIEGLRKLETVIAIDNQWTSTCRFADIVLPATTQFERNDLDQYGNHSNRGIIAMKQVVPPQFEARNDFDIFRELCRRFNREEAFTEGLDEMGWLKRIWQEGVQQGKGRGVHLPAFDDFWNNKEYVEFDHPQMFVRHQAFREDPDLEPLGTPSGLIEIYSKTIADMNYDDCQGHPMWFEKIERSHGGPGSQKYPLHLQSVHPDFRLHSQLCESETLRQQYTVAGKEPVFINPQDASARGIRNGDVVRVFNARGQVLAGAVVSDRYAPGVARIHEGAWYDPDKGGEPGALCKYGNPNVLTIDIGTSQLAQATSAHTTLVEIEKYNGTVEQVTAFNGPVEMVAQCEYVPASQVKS

apo-YdhV = target: T2, apo-YdhV (Escherichia coli, UniProt P76192); assay: in vitro reconstitution, gel filtration, HPLC of dephospho-FormA; assay type: binding; settings: 1.3 µM apo-YdhV, 7 h, 37 °C, pH 7.2, anaerobic, cofactor from alkaline phosphatase treatment
T2 construct: from plasmid SR153, expressed in E. coli RK5200, Ni-NTA and size exclusion purified; cofactor-free apo-protein
T2 sequence (P76192 1-700): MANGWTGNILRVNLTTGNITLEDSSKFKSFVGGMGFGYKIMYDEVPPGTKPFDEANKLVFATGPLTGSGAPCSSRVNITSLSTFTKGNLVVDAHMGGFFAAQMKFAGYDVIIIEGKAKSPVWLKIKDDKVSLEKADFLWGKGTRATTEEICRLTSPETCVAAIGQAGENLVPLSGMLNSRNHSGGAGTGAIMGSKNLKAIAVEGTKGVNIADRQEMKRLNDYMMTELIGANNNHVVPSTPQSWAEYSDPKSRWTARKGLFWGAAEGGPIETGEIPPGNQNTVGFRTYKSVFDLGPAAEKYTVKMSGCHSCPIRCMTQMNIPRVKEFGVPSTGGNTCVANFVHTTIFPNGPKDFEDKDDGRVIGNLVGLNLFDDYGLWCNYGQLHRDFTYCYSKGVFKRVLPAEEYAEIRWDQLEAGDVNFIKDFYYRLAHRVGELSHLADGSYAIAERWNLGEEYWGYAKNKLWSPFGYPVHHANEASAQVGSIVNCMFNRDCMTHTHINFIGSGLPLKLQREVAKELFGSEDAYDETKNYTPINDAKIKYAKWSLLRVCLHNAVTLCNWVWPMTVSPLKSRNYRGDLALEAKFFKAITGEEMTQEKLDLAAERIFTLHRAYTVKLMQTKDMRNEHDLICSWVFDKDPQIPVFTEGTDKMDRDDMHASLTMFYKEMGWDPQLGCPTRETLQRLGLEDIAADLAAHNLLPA

MobA = target: T3, MobA (Escherichia coli, UniProt P32173); assay: conversion to bis-MGD, HPLC of FormA-GMP; assay type: biochemical; settings: 3 µM MobA, 1 mM GTP, 1 mM MgCl2, 5 min, room temperature, bis-Mo-MPT from 30 µM YdhV
T3 construct: from plasmid pCT800A, Ni-NTA and size exclusion purified; monomer
T3 sequence (P32173 1-194): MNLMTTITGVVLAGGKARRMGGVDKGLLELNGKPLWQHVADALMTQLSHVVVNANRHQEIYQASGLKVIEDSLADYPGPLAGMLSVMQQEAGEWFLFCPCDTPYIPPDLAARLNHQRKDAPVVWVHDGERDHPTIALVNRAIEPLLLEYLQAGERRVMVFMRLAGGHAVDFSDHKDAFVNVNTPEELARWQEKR

**Q.** For `Nc1nc2c(c(=O)[nH]1)N[C@H]1C([S-])=C([S-])[C@@H](COP(=O)([O-])OP(=O)([O-])OC[C@H]3O[C@@H](n4cnc5c(=O)[nH]c(N)nc54)[C@H](O)[C@@H]3O)O[C@H]1N2.Nc1nc2c(c(=O)[nH]1)N[C@H]1C([S-])=C([S-])[C@@H](COP(=O)([O-])OP(=O)([O-])OC[C@H]3O[C@@H](n4cnc5c(=O)[nH]c(N)nc54)[C@H](O)[C@@H]3O)O[C@H]1N2.[O]=[Mo+4]` [bis-MGD], which “% bis-MGD saturation (maximum)” value (apo-TorA) is on record?
**A.** The value was 61.9%.

**Q.** How did the “% bound at 100 μM donor” value (apo-YdhV) turn out when dephospho-bis-Mo-MPT was run?
**A.** The value was 25.1%.

**Q.** `Nc1nc2c(ncn2[C@@H]2O[C@H](COP(=O)(O)OP(=O)(O)OP(=O)(O)O)[C@@H](O)[C@H]2O)c(=O)[nH]1` [GTP] was tested. Which “conversion to bis-MGD, HPLC of FormA-GMP” value (MobA) did it give?
**A.** Its value is “we converted bis-Mo-MPT into bis-MGD by the attachment of nucleotides using MobA and Mg-GTP”.
